In a melting point compilation (Tetko et al.):

SMILES	melting point
COCCOc1ccc(C(F)(F)F)cc1NC(=O)CCl	80 to 82 °C
O=S(=O)(Cl)c1cccc(-c2nnco2)c1	87 to 89 °C
Nc1nnc(CC2CC2)o1	141 to 143 °C
CC(=O)N1CCN(Cc2cccc(N)n2)CC1	169 to 171 °C
Cc1cc(=O)c(C(=O)O)nn1-c1cccc(Cl)c1	223 to 225 °C
CS(=O)(=O)Cc1noc(C(Cl)(Cl)Cl)n1	110 to 112 °C
Cc1cc2n(n1)CC(C(F)(F)F)CN2 (stereo not given)	194 to 196 °C
CC(=NO)c1ccc(OCc2ccc(F)cc2)cc1	151 to 153 °C
COc1cccc(C(C[N+](=O)[O-])c2c[nH]c3ccccc23)c1 (stereo not given)	93 to 95 °C
O=C1CCCOc2cc(Br)ccc21	39 to 41 °C
CN(C)S(=O)(=O)c1ccc2c(c1)nc(CCC(=O)O)n2C	205 to 209 °C
O=C(O)C=CC1CC1	68 to 70 °C
CC(C)(C)NS(=O)(=O)c1cccc(C(=O)O)c1	145 to 147 °C
CCOc1ccc(N(C)S(=O)(=O)c2ccc(C)c(C(=O)O)c2)cc1	175 to 177 °C
NCc1ccc(N2CCNC(=O)C2)cc1	189 to 191 °C
CC1(c2cccc(C(F)(F)F)c2)NC(=O)NC1=O (stereo not given)	219 to 221 °C
O=C(NC=C(Cl)Cl)c1ccc(F)cc1	69 to 71 °C
Cc1ccc(-c2noc(N)n2)cc1	214 to 216 °C
O=c1ccc(S(=O)(=O)c2ccccc2)n[nH]1	182 to 184 °C
CCCC1(c2ccccc2)NC(=O)NC1=O (stereo not given)	172 to 174 °C
O=C1NCCNC1c1ccccc1 (stereo not given)	139 to 141 °C
O=C(O)c1ccc(-c2ccc(OC(F)F)cc2)s1	209 to 211 °C
Cn1cnn(-c2ccc(N)cc2)c1=O	159 to 161 °C
Cc1cc(C(C)(C)C)cc(C)c1CC#N	84 to 86 °C

SMILES	melting point
O=C(O)c1c[nH]nc1-c1ccncc1	334 to 336 °C
NC(=O)C1CC(O)CN1 (stereo not given)	117 to 119 °C
CCOc1ccc(N)cc1S(N)(=O)=O	154 to 156 °C
O=C(CCl)NC(=O)NC1CC1	105 to 107 °C
O=S(=O)(c1ccc2oc(S)nc2c1)N1CCOCC1	251 to 253 °C
S=C=Nc1cccc2ncccc12	60 to 62 °C
CC(=O)N(CCC#N)C(C)C	59 to 61 °C
CC(=O)N1CC(C(=O)O)C1	149 to 151 °C
O=C(C(=O)c1ccccn1)c1ccccn1	154 to 156 °C
CN(C)S(=O)(=O)c1ccc(N2CCCCC2)c(C(=O)O)c1	135 to 137 °C
Cc1ccc(NC(=O)CCl)cc1S(=O)(=O)N1CCCCCC1	74 to 76 °C
CC1CCCCC12NC(=O)N(CC(=O)O)C2=O (stereo not given)	156 to 158 °C
CC(=O)N1c2ccccc2C[C@H]1C(=O)O	194 to 196 °C
O=C(O)c1cc(N2CCOCC2)ccc1[N+](=O)[O-]	188 to 192 °C
NC(=O)CCOc1ccc(N)cc1	110 to 112 °C
NS(=O)(=O)C=Cc1ccc(F)cc1	148 to 150 °C
CC(=O)N(c1ccccc1)c1nc(C=O)cs1	150 to 152 °C
CNc1cc(Cl)ncn1	138 to 140 °C
O=C(O)Cn1cccc(C(F)(F)F)c1=O	199 to 201 °C
Cc1cc(C)nc(SCc2ccc(C(=O)NN)cc2)n1	135 to 137 °C
NCCCCc1cn[nH]c1	72 to 74 °C
O=C(O)c1ccccc1NS(=O)(=O)c1cccc(C(F)(F)F)c1	157 to 159 °C
CS(=O)(=O)Nc1cccc(C(=O)O)c1	230 to 232 °C
COc1ccc(NS(=O)(=O)c2c[nH]c(C(=O)O)c2)cc1Cl	207 to 209 °C

SMILES	melting point
Cc1nc(-c2ccccc2)ccc1C(=O)O	190 to 192 °C
CC(Cc1ccc(C(F)(F)F)cc1)C(=O)O (stereo not given)	68 to 70 °C
Nc1cccc(N2CCS(=O)(=O)CC2)c1	151 to 153 °C
ClCc1nc(-c2ccco2)no1	82 to 84 °C
CN(C)S(=O)(=O)c1ccc(C(=O)CBr)cc1	90 to 92 °C
CCN1N=C(C)CC1=O	107 to 109 °C
CC(=O)c1c(O)cc(C)oc1=O	109 to 111 °C
CC(C)Cn1c(S)nc2cc(Cl)ccc2c1=O	221 to 223 °C
Nc1cccc(NS(=O)(=O)c2ccc(Cl)cc2)c1	112 to 114 °C
CC(C)c1ccc(C2(O)CCC(=O)CC2)cc1	134 to 136 °C
CCc1c(C)nn(-c2cccc(C(=O)O)c2)c1C	149 to 151 °C
NC(=NO)c1ccc(N2CCN(c3ccc(F)cc3)CC2)nc1	191 to 193 °C
CN(C)C(=O)Cc1ccccc1N	69 to 71 °C
Cc1csc(SCc2c(C(=O)O)oc3ccccc23)n1	177 to 179 °C
CC1CNC(=O)N(c2ccccc2)C1=O (stereo not given)	174 to 176 °C
O=S(=O)(Cl)Cc1c(F)cccc1F	73 to 75 °C
O=C(O)CC#Cc1ccccc1	71 to 73 °C
Cc1[nH]c2ccc(C#N)cc2c1C	145 to 147 °C
O=C(O)C1(Cc2nc3ccccc3s2)CCCC1	155 to 157 °C
Cc1nc2cc(O)nn2c(C)c1CCC(=O)O	302 to 304 °C
NS(=O)(=O)c1c[nH]cn1	232 to 234 °C
N#CCc1cnn(-c2ccccc2)n1	65 to 67 °C
NCc1ccc(N2CCN(c3ccccn3)CC2)nc1	107 to 109 °C
CN(C)C(=O)c1ccc(NC(=O)CCl)cc1	177 to 179 °C

SMILES	melting point
Cc1cc2n(n1)C(C(F)(F)F)CCN2 (stereo not given)	169 to 171 °C
O=C(O)CSc1nc2ccccc2s1	159 to 161 °C
CN(C)C(=O)Sc1cccc(CCl)c1	44 to 46 °C
O=C(O)c1ccc(Cn2cc(Br)cn2)o1	128 to 130 °C
CC1CC(C)CC2(C1)NC(=O)N(CC(=O)O)C2=O (stereo not given)	259 to 261 °C
Cc1nc(Cl)c2cc(-c3ccccc3)sc2n1	114 to 116 °C
CCc1ccc(N2CCC(=O)CC2)cc1	43 to 45 °C
O=C(O)c1ccnc(Cl)c1[N+](=O)[O-]	222 to 224 °C
COc1ccc(N)cc1C	31 to 33 °C
CN1CCN(C(=O)Cc2cccc(N)c2)CC1	138 to 140 °C
CCN(CC(=O)O)S(=O)(=O)c1cccnc1Cl	156 to 158 °C
CCCCOc1ccc(-c2nnc(N)[nH]2)cc1	200 to 202 °C
OCc1nc(Cc2ccc(F)cc2)no1	53 to 55 °C
O=C(O)C1CC(=O)N(c2cccc(C(F)(F)F)c2)C1 (stereo not given)	102 to 104 °C
CCOc1ccc(-c2nc(CO)cs2)cc1	107 to 109 °C
CC(C)CNC(=O)NC(=O)CCl	105 to 107 °C
FC(F)(F)C1(NCc2ccccc2)CCC2(CC1)OCCO2	83 to 85 °C
O=C(O)c1cc([N+](=O)[O-])c[nH]1	198 to 200 °C
COc1ccc2c(ccn2CC(=O)O)c1	140 to 142 °C
CCCn1nc(C)c(C(=O)O)c1C	113 to 115 °C
CCOC=C1C(=O)N(c2cccc(Cl)c2)C(=O)c2ccccc21	205 to 209 °C
N#Cc1ccccc1CN1CCCC1C(N)=O (stereo not given)	88 to 90 °C
Nn1c(S)nnc1Cc1ccc(F)cc1	203 to 205 °C
Cc1cc(O)nc(CCl)n1	147 to 149 °C

SMILES	melting point
CS(=O)(=O)Nc1ccc(O)cc1	158 to 160 °C
O=S1(=O)CCC(Br)CC1	127 to 129 °C
COc1ccc(-n2nc(N)cc2C)cc1	87 to 89 °C
O=C(O)Cc1ccc(S(=O)(=O)CC(F)(F)F)cc1	142 to 144 °C
O=C(O)c1cnc2c(cnn2C2CCCC2)c1	141 to 143 °C
Cc1ccc(-c2nc(CC(=O)O)cs2)c(C)c1	104 to 106 °C
Cc1ccc(NC(=O)CC2(C(=O)O)CCCC2)cc1	191 to 193 °C
O=C(O)c1cccc(S(=O)(=O)NCC2CCCO2)c1 (stereo not given)	157 to 161 °C
Clc1nc(-c2cccs2)nc2scc(-c3ccccc3)c12	143 to 145 °C
Nc1nc2c3c(ccc2s1)CCCC3	122 to 124 °C
c1ccc(-c2c[nH]c(C3CCCNC3)n2)cc1 (stereo not given)	93 to 95 °C
Fc1ccc2c(C3CCNCC3)c[nH]c2c1	225 to 227 °C
O=C(O)C1C2C3CC4C5CC(C42)C1C53 (stereo not given)	101 to 103 °C
O=C(O)c1nn(-c2ccc(F)cc2)c2c1CCCC2	209 to 211 °C
CC(=O)c1ccc(S(=O)(=O)CC(=O)O)cc1F	149 to 151 °C
CCC(=O)c1c(C)nn(CCS(C)(=O)=O)c1C	154 to 156 °C
O=C1CS(=O)CCN1 (stereo not given)	119 to 121 °C
C=CCn1c(C)cc(C(=O)CCl)c1C	36 to 40 °C
O=C1COc2ccc(C(=O)CBr)cc2N1	190 to 192 °C
COC(=O)c1sc2nc(C)nc(Cl)c2c1C	149 to 151 °C
COc1cc(OC)cc(C(=O)Nc2ccc(C(=O)O)c(O)c2)c1	219 to 221 °C
Nc1ccc(OCc2cccc(F)c2)c(Cl)c1	79 to 81 °C
CCOc1ccccc1-n1nnnc1SCC(=O)O	145 to 147 °C
CCNCC(=O)Nc1ccc(OC)cc1	88 to 90 °C

SMILES	melting point
Cc1cc(Cl)c(N)c(C(=O)O)c1	201 to 203 °C
C/C(CC(=O)c1ccccc1)=N\c1ccccc1	110 to 112 °C
N#Cc1cc2c(nc1Cl)CCCC2	128 to 130 °C
CN1CCc2ccc(N)cc2C1=O	127 to 129 °C
Nc1c(C(=O)O)ccnc1Br	224 to 226 °C
COc1ccccc1-c1ccccc1C(=O)O	149 to 151 °C
COC(=O)C1CCc2[nH]ncc2C1 (stereo not given)	79 to 81 °C
CC(NC(=O)c1ccccc1Cl)C(=O)O (stereo not given)	137 to 139 °C
NNc1c(Cl)cc(F)cc1Cl	109 to 111 °C
NS(=O)(=O)c1cc(F)cc([N+](=O)[O-])c1	184 to 186 °C
O=S(=O)(c1ccc(S)nc1)N1CCN(Cc2ccccc2)CC1	169 to 171 °C
O=C(O)C(O)c1cc(Cl)cc(Cl)c1 (stereo not given)	99 to 101 °C
CCCCNc1ccc(N2CCOCC2)cc1	59 to 61 °C
CC(C)(C)OC(=O)N1CC(OS(C)(=O)=O)C1	65 to 67 °C
O=c1c2sccc2ncn1CCO	179 to 181 °C
O=C(c1cnc(Cl)c(Cl)c1)N1CCCCC1	78 to 80 °C
CCOC(=O)c1cnn2c(C(=O)OCC)c(CCCO)cnc12	70 to 72 °C
Cc1cnc2c(c1)NC(=O)CO2	259 to 261 °C
O=[N+]([O-])c1cc(S(=O)(=O)Nc2ccccc2)ccc1Cl	87 to 89 °C
COCc1nc(Cl)c2c(-c3ccccc3)csc2n1	62 to 64 °C
